Test results as given in PMC4526345 (Biochemistry, 2015).

Columns and labels:
[1] = biological target: Mycoplana ramosa APAH (Mycoplana ramosa, UniProt Q48935); assay: APAH inhibition, fluorimetric Fluor-de-Lys assay; type: biochemical; conditions: also evaluated after 30 and 60 min incubation times
[2] = biological target: T1, HDAC8 (Homo sapiens, UniProt Q9BY41); assay: Deacetylation of N^8-acetylspermidine by HDAC8; type: biochemical; conditions: overnight incubation with HDAC8; data not shown
T1 sequence (Q9BY41 1-377): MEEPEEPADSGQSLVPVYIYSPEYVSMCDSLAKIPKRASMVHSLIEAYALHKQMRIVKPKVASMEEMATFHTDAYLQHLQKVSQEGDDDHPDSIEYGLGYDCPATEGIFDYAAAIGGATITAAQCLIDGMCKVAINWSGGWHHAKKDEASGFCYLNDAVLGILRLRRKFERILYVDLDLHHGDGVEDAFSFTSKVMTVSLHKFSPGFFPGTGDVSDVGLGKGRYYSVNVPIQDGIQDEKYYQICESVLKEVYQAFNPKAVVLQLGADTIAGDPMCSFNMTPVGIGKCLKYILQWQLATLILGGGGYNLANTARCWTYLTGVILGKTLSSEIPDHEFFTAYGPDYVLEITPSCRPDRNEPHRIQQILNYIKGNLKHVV

[3] = tested on: HDAC8; conditions: read-out: IC50 HDAC8; cited from earlier work

Mycoplana ramosa APAH, sequence (Q48935 whole entry): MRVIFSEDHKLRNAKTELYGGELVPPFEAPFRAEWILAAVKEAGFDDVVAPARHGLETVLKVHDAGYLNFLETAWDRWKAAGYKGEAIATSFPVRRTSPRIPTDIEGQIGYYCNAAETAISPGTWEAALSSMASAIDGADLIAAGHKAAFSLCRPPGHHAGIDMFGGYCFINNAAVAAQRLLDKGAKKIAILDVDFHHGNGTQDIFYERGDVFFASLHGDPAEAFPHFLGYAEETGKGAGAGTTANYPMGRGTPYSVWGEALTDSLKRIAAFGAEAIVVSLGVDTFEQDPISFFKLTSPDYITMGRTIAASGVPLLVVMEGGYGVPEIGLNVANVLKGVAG

With `Cl.NCCCCCCC(=O)NO` [Compound 6, 7-Amino-N-hydroxyheptanamide hydrochloride salt] the “time-dependent inhibition of APAH” value [1] was “not observed”.
In the case of `CC(=O)NCCCCNCCCN` [N^8-acetylspermidine], the “spermidine product formed by HDAC8” value [2] is reported as “does not yield any measurable spermidine product”.
For largazole thiol, the IC50 [3] is given as 102 nM.
